One data set has as its system SKBR-3. Kind of data set: MTT assay, SKBR-3 breast cancer cells. Type of data set: cell-based. Conditions: for viability at 10 µM / GI50: Homo sapiens, SK-BR-3, MTT; for viability at 10 µM: 72 h after the treatment, mean of three independent experiments, read-out: Percentage of cell viability SKBR-3; for GI50: 72 h, mean of three independent experiments ± SEM. The essentials: (§1)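 Cells seeded 24 h at 37 °C, 5% CO2, then treated 72 h with a concentration range; single-point screen at 10 μM gave % viability. MTT (0.5 mg/mL, 4 h), DMSO-solubilised, A570; GI50 from sigmoidal curves, mean of three experiments.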
(In general: Tetrazolium dyes change colour on reduction, which living cells bring about.)

The subject of a further data set is MDA-MB231. Kind of data set: MTT assay, MDA-MB231 breast cancer cells. The class given is cell-based. Conditions: Homo sapiens, MDA-MB-231; for viability at 10 µM: 72 h after the treatment, mean of three independent experiments, read-out: Percentage of cell viability MDA-MB231. The method, boiled down:
as §1

For another data set, the system named is MCF-7. Kind of data set: MTT assay, MCF-7 breast cancer cells. The conditions noted are these: Homo sapiens; for viability at 10 µM: MCF7, 10 μM, 72 h after the treatment, mean of three independent experiments, read-out: Percentage of cell viability MCF-7; for GI50: MCF7, 72 h, mean of three independent experiments ± SEM. The class given is cell-based. The method, boiled down:
as §1

A further data set deals with MCF-10A. Kind of data set: MTT assay, MCF-10A normal breast cells. Type of data set: cell-based. Conditions: Homo sapiens, 72 h, read-out: GI50 (μM) ± SEM MCF-10A. The procedure:
All the compounds, selected for determination of GI50 values against MDA-MB231 cells, were also used for the experiments with MCF-10A normal breast cells.
The cytotoxic activity of 6,N^2-diaryl-1,3,5-triazine-2,4-diamines (1–126) was evaluated against three breast carcinoma cell lines (MDA-MB231, SKBR-3, and MCF-7) and normal breast cell line (MCF-10A) by MTT assay.[22] All cells were obtained from the American Type Culture Collection and were grown in 10% fetal bovine serum and 1% pen-strep antibiotic supplemented media (DMEM for MDA-MB231 and SKBR-3, RPMI for MCF-7, and MEGM for MCF-10A). For MTT assay, 20 000 to 75 000 cells per mL (based on the doubling time for each cell line) were seeded in 96 well plates and incubated for 24 h at 37 °C in 5% CO2 incubator. Then, compounds at different concentrations were added followed by the incubation at 37 °C for 72 h. After that, MTT solution (0.5 mg mL^−1) was added and the plates were incubated for another 4 h. The supernatant was then discarded and 100 μL of DMSO was added to each well. The plates were then read by Tecan NanoQuant (model: infinite m200 pro) plate reader and absorbance was measured at 570 nm. GI50 values were calculated using sigmoidal concentration–response curves (see ESI ^†) generated using the GraphPad Prism 7 program. Three independent experiments were carried out and the data were represented as mean of the three experiments.

[1] abbreviates: −log[GI50], MDA-MB231, read-out: Experimental pGI50 (converted).
Where [2] appears, read: 72 h, MTT, mean of three independent experiments ± SEM, read-out: GI50 (μM) ± SEM MDA-MB231.

Like-named read-outs stand apart in the source and are kept apart here.

Regarding `Cc1cccc(-c2nc(N)nc(Nc3ccc(F)cc3)n2)c1` (hydrate or solvate) [Compound 53, N ^2-(4-Fluorophenyl)-6-(3-methylphenyl)-1,3,5-triazine-2,4-diamine], the melting point (as a rule, the temperature of the solid-liquid transition) lay in the range of 138 to 139 °C.
In turn, `COc1ccc(Nc2nc(N)nc(-c3ccc(OC)cc3)n2)cc1` [Compound 71, N ^2,6-Bis(4-methoxyphenyl)-1,3,5-triazine-2,4-diamine] yielded a melting point of 163 to 165 °C. For the same compound, the viability (commonly a read-out of living cells in per cent, often relative to untreated cells) at 10 µM with SKBR-3 was found to be 93%. Further, the viability at 10 µM in the data set with MDA-MB231 (MTT) amounted to 56%. In addition, in the data set with MDA-MB231 (setting [1]), the GI50 is 14.1 µM. For the same compound, the viability at 10 µM in the data set with MCF-7 was determined as 95%.
`Cc1ccc(Nc2nc(N)nc(-c3cccc(F)c3)n2)cc1` [Compound 17]: the viability at 10 µM in the data set on SKBR-3 stood at 90%; with MDA-MB231 (MTT) it was 29%; with MCF-7, 71%. In addition, the GI50 is above 20 µM in the data set on SKBR-3; above 25 µM in the data set on MCF-10A; 3.96 ± 0.17 µM in the data set with MDA-MB231 (setting [2]); 3.98 µM with MDA-MB231 (setting [1]); above 20 µM with MCF-7.
In the case of `Nc1nc(Nc2ccccc2F)nc(-c2cccs2)n1` (hydrate or solvate) [Compound 116, N ^2-(2-Fluorophenyl)-6-(thiophen-2-yl)-1,3,5-triazine-2,4-diamine], the melting point was in the range of 165 to 167 °C.
For `CN(C)c1ccc(-c2nc(N)nc(Nc3ccccc3)n2)cc1` [Compound 100], the values for the viability at 10 µM in the data set with SKBR-3, in the data set with MDA-MB231 (MTT) and with MCF-7 were 61%, 21% and 80%, respectively. Besides, the GI50 in the data set with SKBR-3 is 4.19 ± 0.37 µM; with MCF-10A it was above 25 µM; with MDA-MB231 (setting [2]), 0.36 ± 0.07 µM; with MDA-MB231 (setting [1]), 0.363 µM; with MCF-7, above 20 µM.
With `COc1ccccc1Nc1nc(N)nc(-c2ccc(N(C)C)cc2)n1` [Compound 103], the results for the viability at 10 µM with SKBR-3, in the data set with MDA-MB231 (MTT) and in the data set on MCF-7 were 48%, 28% and 88%, respectively. Besides, the GI50 in the data set on SKBR-3 was 3.63 ± 0.23 µM; in the data set on MCF-10A, above 25 µM; in the data set with MDA-MB231 (setting [2]) it was 4.17 ± 0.33 µM; with MDA-MB231 (setting [1]) it was 4.17 µM; in the data set on MCF-7 it was above 20 µM.
As for `Cc1cccc(-c2nc(N)nc(Nc3ccc(OC(F)(F)F)cc3)n2)c1` [Compound 58], the viability at 10 µM came to 100% in the data set with SKBR-3, 50% with MDA-MB231 (MTT) and 73% in the data set on MCF-7. Besides, the GI50 in the data set on SKBR-3 was above 20 µM; in the data set on MCF-10A, above 25 µM; with MDA-MB231 (setting [2]), 15.2 ± 1.01 µM; in the data set on MDA-MB231 (setting [1]), 15.1 µM; with MCF-7, above 20 µM.
Consider `COc1ccc(-c2nc(N)nc(Nc3cccc(Cl)c3)n2)cc1` [Compound 74], for which the viability at 10 µM in the data set on SKBR-3 was 45%; with MDA-MB231 (MTT), 22%; in the data set on MCF-7 it was 86%. For the same compound, the GI50 in the data set with SKBR-3 was 0.18 ± 0.04 µM; in the data set on MCF-10A, above 25 µM; in the data set with MDA-MB231 (setting [2]), 1.33 ± 0.17 µM; with MDA-MB231 (setting [1]), 1.32 µM; with MCF-7, 18.3 ± 1.11 µM.
Regarding `COc1ccc(Nc2nc(N)nc(-c3cccc(C)c3)n2)cc1` (hydrate or solvate) [Compound 57, N ^2-(4-Methoxyphenyl)-6-(3-methylphenyl)-1,3,5-triazine-2,4-diamine], the melting point lay in the range of 150 to 152 °C.
As to `Nc1nc(Nc2ccc(OC(F)(F)F)cc2)nc(-c2cccc(F)c2)n1` [Compound 19], the values for the viability at 10 µM with SKBR-3, in the data set with MDA-MB231 (MTT) and with MCF-7 were 100%, 50% and 76%, respectively. In addition, the GI50 in the data set with SKBR-3 was above 20 µM; with MCF-10A, above 25 µM; in the data set with MDA-MB231 (setting [2]), 8.56 ± 0.59 µM; in the data set on MDA-MB231 (setting [1]) it was 8.51 µM; in the data set on MCF-7, 18.2 ± 1.28 µM.
As to `Nc1nc(Nc2ccccc2Cl)nc(-c2ccccc2)n1` (hydrate or solvate) [Compound 4, N ^2-(2-Chlorophenyl)-6-phenyl-1,3,5-triazine-2,4-diamine], the melting point fell in the range of 82 to 84 °C.
The same measure, in the same setting: next, `Cc1cccc(-c2nc(N)nc(Nc3ccc(C(C)C)cc3)n2)c1` (hydrate or solvate) [Compound 59, N ^2-(4-Isopropylphenyl)-6-(3-methylphenyl)-1,3,5-triazine-2,4-diamine]: 134 to 136 °C.
Turning to `Cc1ccc(Nc2nc(N)nc(-c3cccc(C)c3)n2)cc1` [Compound 56], the viability at 10 µM with SKBR-3 was found to be 62%; in the data set on MDA-MB231 (MTT), 12%; in the data set with MCF-7, 67%. Also, the GI50 with SKBR-3 was 1.26 ± 0.18 µM; with MCF-10A it was above 25 µM; in the data set on MDA-MB231 (setting [2]), 0.17 ± 0.02 µM; with MDA-MB231 (setting [1]), 0.17 µM; in the data set on MCF-7 it was above 20 µM.
In the case of `Nc1nc(Nc2ccc(Br)cc2)nc(-c2cccc(F)c2)n1` [Compound 16], the viability at 10 µM in the data set with SKBR-3 was 89%; in the data set with MDA-MB231 (MTT) it was 43%; in the data set on MCF-7, 80%. The GI50 is 17.2 ± 1.07 µM in the data set with SKBR-3; above 25 µM with MCF-10A; 13.1 ± 0.91 µM in the data set with MDA-MB231 (setting [2]); 13.2 µM with MDA-MB231 (setting [1]); above 20 µM with MCF-7.
`Nc1nc(Nc2ccc(Br)cc2)nc(-c2cccs2)n1` [Compound 120]: the viability at 10 µM in the data set with SKBR-3 amounted to 87%; in the data set on MDA-MB231 (MTT) it was 46%; in the data set on MCF-7 it was 88%. Moreover, the GI50 in the data set on SKBR-3 is above 20 µM; in the data set with MCF-10A, above 25 µM; in the data set on MDA-MB231 (setting [2]), 11.7 ± 1.39 µM; in the data set on MDA-MB231 (setting [1]) it was 11.7 µM; in the data set with MCF-7, above 20 µM.
With `COc1ccc(-c2nc(N)nc(Nc3ccccc3OC)n2)cc1` [Compound 78], the viability at 10 µM is 66% in the data set on SKBR-3, 50% in the data set on MDA-MB231 (MTT) and 57% in the data set with MCF-7. Besides, the GI50 is 2.15 ± 0.12 µM with SKBR-3; above 25 µM with MCF-10A; 13.2 ± 0.93 µM with MDA-MB231 (setting [2]); 13.2 µM with MDA-MB231 (setting [1]); above 20 µM with MCF-7.
Consider `COc1ccc(-c2nc(N)nc(Nc3ccccc3Cl)n2)cc1` [Compound 73], for which the viability at 10 µM was 47% with SKBR-3, 10% in the data set on MDA-MB231 (MTT) and 84% in the data set with MCF-7. The GI50 is 1.1 ± 0.01 µM in the data set on SKBR-3; above 25 µM in the data set on MCF-10A; 0.23 ± 0.03 µM in the data set with MDA-MB231 (setting [2]); 0.229 µM in the data set with MDA-MB231 (setting [1]); above 20 µM in the data set on MCF-7. The “activity against SKBR-3 cells (in words)” value in the data set with SKBR-3 (SAR discussion, compared with MDA-MB231) was “equipotent”.
With `COc1ccc(-c2nc(N)nc(Nc3ccccc3F)n2)cc1` [Compound 70], the values for the viability at 10 µM in the data set on SKBR-3, with MDA-MB231 (MTT) and in the data set with MCF-7 were 46%, 9% and 63%, respectively. Moreover, the GI50 was above 20 µM with SKBR-3; above 25 µM with MCF-10A; 0.32 ± 0.04 µM with MDA-MB231 (setting [2]); 0.324 µM in the data set on MDA-MB231 (setting [1]); above 20 µM in the data set on MCF-7.
Take `Cc1ccc(-c2nc(N)nc(Nc3ccc(F)cc3)n2)cc1` [Compound 62]: the viability at 10 µM in the data set on SKBR-3 stood at 78%; in the data set with MDA-MB231 (MTT), 48%; with MCF-7 it was 100%. Further, the GI50 in the data set with SKBR-3 is above 20 µM; with MCF-10A, above 25 µM; in the data set with MDA-MB231 (setting [2]), 10.7 ± 0.73 µM; with MDA-MB231 (setting [1]), 10.7 µM; with MCF-7, 20.2 ± 1.95 µM.
`COc1ccc(Nc2nc(N)nc(-c3cccc(F)c3)n2)cc1` [Compound 18]: the viability at 10 µM in the data set with SKBR-3 was 74%; in the data set on MDA-MB231 (MTT), 46%; with MCF-7 it was 76%. Further, the GI50 was 16.6 ± 1.38 µM in the data set with SKBR-3; above 25 µM in the data set on MCF-10A; 6.18 ± 0.43 µM with MDA-MB231 (setting [2]); 6.17 µM with MDA-MB231 (setting [1]); above 20 µM in the data set with MCF-7.
Regarding `Nc1nc(Nc2cccnc2)nc(-c2ccc(OC(F)(F)F)cc2)n1` [Compound 99], the viability at 10 µM was 81% in the data set on SKBR-3, 33% in the data set on MDA-MB231 (MTT) and 85% with MCF-7. For the same compound, the GI50 was above 20 µM in the data set on SKBR-3; above 25 µM in the data set on MCF-10A; 11.5 ± 1.51 µM in the data set on MDA-MB231 (setting [2]); 11.5 µM in the data set on MDA-MB231 (setting [1]); above 20 µM in the data set on MCF-7.
Compound `COc1ccc(Nc2nc(N)nc(-c3cccs3)n2)cc1` (hydrate or solvate) [Compound 123, N ^2-(4-Methoxyphenyl)-6-(thiophen-2-yl)-1,3,5-triazine-2,4-diamine] yielded a melting point of 139 to 141 °C.

The record behind these values is article PMC9050923, “6,N^2-Diaryl-1,3,5-triazine-2,4-diamines: synthesis, antiproliferative activity and 3D-QSAR modeling” (RSC Advances, 2020).
